PubChem BioAssay AID330 (DTP/NCI, 2004)
“And” between values parts separate entries of the source, which are not always exact repeats. Equal values may be shown once. Toxic doses and inconclusive results are not listed.

Tested on: P388 leukemia ip, CD2F1 mice, survival T/C
Test: NCI In Vivo Anticancer Drug Screen. Data for tumor model P388 Leukemia (intraperitoneal) in CD2F1 (CDF1) mice
Conditions: endpoint: median survival time, higher = longer survival
Procedure, shortened: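 Mice carrying the transplanted tumor received test compound or vehicle. Survival was recorded in each group, and the value is the treated-group measurement divided by that of the vehicle-treated control group.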

[1] = dose: 60.0 mg/kg/injection, schedule: Q01DX005 (ip), vehicle: saline
[2] = dose: 120.0 mg/kg/injection, schedule: Q01DX005 (ip), vehicle: saline
[3] = dose: 240.0 mg/kg/injection, schedule: Q01DX005 (ip), vehicle: saline
[4] = dose: 6.25 mg/kg/injection, schedule: Q01DX009 (ip), vehicle: saline
[5] = dose: 12.5 mg/kg/injection, schedule: Q01DX009 (ip), vehicle: saline
[6] = dose: 25.0 mg/kg/injection, schedule: Q01DX009 (ip), vehicle: saline
[7] = dose: 50.0 mg/kg/injection, schedule: Q01DX009 (ip), vehicle: saline
[8] = dose: 100.0 mg/kg/injection, schedule: Q01DX009 (ip), vehicle: saline
[9] = dose: 200.0 mg/kg/injection, schedule: Q01DX009 (ip), vehicle: saline
[10] = dose: 50.0 mg/kg/injection, schedule: Q01DX005 (ip), vehicle: Klucel (hydroxypropylcellulose) (HPC)
[11] = dose: 100.0 mg/kg/injection, schedule: Q01DX005 (ip), vehicle: Klucel (hydroxypropylcellulose) (HPC)
[12] = dose: 200.0 mg/kg/injection, schedule: Q01DX005 (ip), vehicle: Klucel (hydroxypropylcellulose) (HPC)
[13] = dose: 50.0 mg/kg/injection, schedule: Q01DX009 (ip), vehicle: Klucel (hydroxypropylcellulose) (HPC)
[14] = dose: 100.0 mg/kg/injection, schedule: Q01DX009 (ip), vehicle: Klucel (hydroxypropylcellulose) (HPC)
[15] = dose: 100.0 mg/kg/injection, schedule: Q01DX009 (ip), vehicle: saline with Tween-80
[16] = dose: 200.0 mg/kg/injection, schedule: Q01DX009 (ip), vehicle: saline with Tween-80
[17] = dose: 60.0 mg/kg/injection, schedule: Q01DX005 (ip), vehicle: saline with Tween-80
[18] = dose: 120.0 mg/kg/injection, schedule: Q01DX005 (ip), vehicle: saline with Tween-80
[19] = dose: 100.0 mg/kg/injection, schedule: Q04DX003 (ip), vehicle: saline with Tween-80
[20] = dose: 200.0 mg/kg/injection, schedule: Q04DX003 (ip), vehicle: saline with Tween-80
[21] = dose: 400.0 mg/kg/injection, schedule: Q04DX003 (ip), vehicle: saline with Tween-80
[22] = dose: 50.0 mg/kg/injection, schedule: Q01DX005 (ip), vehicle: saline
[23] = dose: 100.0 mg/kg/injection, schedule: Q01DX005 (ip), vehicle: saline

SMILES: CC(=O)Nn1cnc2[nH]ncc2c1=O
- T/C [1]: 102 % of control
- T/C [2]: 101 % of control
- T/C [3]: 101 % of control

SMILES: C=C[Se](=C(C(=O)c1ccccc1)C(=O)c1ccccc1)c1ccccc1 (stereo not given)
- T/C [4]: 96 % of control
- T/C [5]: 103 % of control
- T/C [6]: 99 % of control
- T/C [7]: 107 % of control
- T/C [8]: 113 % of control
- T/C [9]: 113 % of control

SMILES: CN1C(=O)c2ccc3c4ccc5c6c(ccc(c7ccc(c2c37)C1=O)c64)C(=O)N(c1ccccc1)C5=O
- T/C [10]: 87 % of control
- T/C [11]: 86 % of control
- T/C [12]: 86 % of control

SMILES: S=C1SCN(c2ccc3c(c2)OCO3)CN1c1ccc2c(c1)OCO2
- T/C [13]: 96 % of control
- T/C [14]: 100 % of control
- T/C (dose: 200.0 mg/kg/injection, schedule: Q01DX009 (ip), vehicle: Klucel (hydroxypropylcellulose) (HPC)): 96 % of control

SMILES: COc1ccc(/C=N/NC(=O)C(=O)Nc2ccc(Cl)c([N+](=O)[O-])c2)cc1OC
- T/C (dose: 50.0 mg/kg/injection, schedule: Q01DX005 (ip), vehicle: saline with Tween-80): 93 % of control
- T/C (dose: 100.0 mg/kg/injection, schedule: Q01DX005 (ip), vehicle: saline with Tween-80): 92 % of control
- T/C (dose: 200.0 mg/kg/injection, schedule: Q01DX005 (ip), vehicle: saline with Tween-80): 103 % of control

SMILES: Nc1ncnc2ncn(CC(O)CN(CCO)CCO)c12 (stereo not given)
- T/C (dose: 60.0 mg/kg/injection, schedule: Q01DX005 (ip), vehicle: Klucel (hydroxypropylcellulose) (HPC)): 100 % of control
- T/C (dose: 120.0 mg/kg/injection, schedule: Q01DX005 (ip), vehicle: Klucel (hydroxypropylcellulose) (HPC)): 97 % of control
- T/C (dose: 240.0 mg/kg/injection, schedule: Q01DX005 (ip), vehicle: Klucel (hydroxypropylcellulose) (HPC)): 95 % of control

SMILES: O=c1[nH]/c(=C/c2ccccc2)c(=O)[nH]/c1=C/C=C/c1ccccc1
- T/C (dose: 25.0 mg/kg/injection, schedule: Q01DX009 (ip), vehicle: Klucel (hydroxypropylcellulose) (HPC)): 107 % of control
- T/C [13]: 104 % of control
- T/C [14]: 102 % of control

SMILES: CC1(C)N=C(N)N=C(N)N1c1ccc(OCCCNC(=O)Nc2cccc(S(=O)(=O)F)c2)c(Cl)c1
- T/C [6]: 179 % of control
- T/C [7]: 190 % of control
- T/C [8]: 209 % of control

SMILES: O=[N+]([O-])c1ccc(/C=C\c2ccc(Cl)cc2S(=O)(=O)F)c(Cl)c1
- T/C [15]: 95 % of control
- T/C (dose: 100.0 mg/kg/injection, schedule: Q04DX003 (ip), vehicle: Klucel (hydroxypropylcellulose) (HPC)): 117 % of control
- T/C [16]: 100 % of control
- T/C (dose: 200.0 mg/kg/injection, schedule: Q04DX003 (ip), vehicle: Klucel (hydroxypropylcellulose) (HPC)): 103 % of control
- T/C (dose: 400.0 mg/kg/injection, schedule: Q01DX009 (ip), vehicle: saline with Tween-80): 104 % of control
- T/C (dose: 400.0 mg/kg/injection, schedule: Q04DX003 (ip), vehicle: Klucel (hydroxypropylcellulose) (HPC)): 112 % of control

SMILES: O=C(O)c1ncc2ncccc2c1O
- T/C [7]: 107 % of control
- T/C [8]: 104 % of control
- T/C [9]: 101 % of control

SMILES: CCCCNC(=O)CCC(NS(=O)(=O)c1ccc(C)cc1)C(=O)NCCCC (stereo not given)
- T/C [10]: 93 % of control
- T/C [11]: 100 % of control
- T/C [12]: 93 % of control

SMILES: CCC(=O)O[C@H]1CC[C@H]2[C@@H]3C[C@H](F)C4=CC(=O)CC[C@]4(C)[C@H]3CC[C@]12C
- T/C (dose: 50.0 mg/kg/injection, schedule: Q01DX009 (ip), vehicle: saline with Tween-80): 100 % of control
- T/C [15]: 100 % of control
- T/C [16]: 100 % of control

SMILES: O=C(O)C(Cc1c[nH]c2ccc(O)cc12)NCC1(O)OCC(O)C(O)C1O (stereo not given)
- T/C [1]: 97 % of control
- T/C [2]: 99 % of control
- T/C [3]: 98 % of control

SMILES: Nc1nc2c(c(-c3nc(N)nc4c3Cc3ccccc3-4)n1)Cc1ccccc1-2
- T/C [17]: 98 % of control
- T/C [18]: 100 % of control

SMILES: Cc1nn(C(=S)S)c(C)c1N=Nc1ccc([N+](=O)[O-])cc1
- T/C (dose: 25.0 mg/kg/injection, schedule: Q01DX005 (ip), vehicle: Klucel (hydroxypropylcellulose) (HPC)): 94 % of control
- T/C [10]: 104 % of control
- T/C [11]: 108 % of control

SMILES: CCC[N+]1(CC)CCCCC1
- T/C (dose: 3.12 mg/kg/injection, schedule: Q01DX009 (ip), vehicle: saline): 103 % of control
- T/C [4]: 99 % of control
- T/C [5]: 100 % of control

SMILES: CC(O)C1OC(O)C2OC(C)(C)OC12 (stereo not given)
- T/C [1]: 98 % of control
- T/C [2]: 95 % of control
- T/C [3]: 98 % of control

SMILES: CCN(CC)Cc1cc(C)c(O)c(N=Nc2cc(OC)c(N=Nc3ccc([N+](=O)[O-])cc3)cc2OC)c1C
- T/C [19]: 91 % of control
- T/C [20]: 94 % of control
- T/C [21]: 94 % of control

SMILES: CCOC(=O)c1c(Cl)c(Cc2ccccc2)c(Cl)n2c1nc1ccccc12
- T/C [17]: 99 % of control
- T/C [18]: 93 % of control
- T/C (dose: 240.0 mg/kg/injection, schedule: Q01DX005 (ip), vehicle: saline with Tween-80): 89 % of control

SMILES: CCN1/C(=C/C=C2\CCC(/C=C/c3sc4ccc(Cl)cc4[n+]3CC)=C2N(c2ccccc2)c2ccccc2)Sc2ccc(Cl)cc21
- T/C (dose: 6.25 mg/kg/injection, schedule: Q01DX009 (ip), vehicle: Klucel (hydroxypropylcellulose) (HPC)): 156 % of control
- T/C [13]: 107 % of control

SMILES: CC(=NCc1ccccc1)NO
- T/C [22]: 97 % of control
- T/C [23]: 96 % of control

SMILES: C=CCC1C=CC=CN1C(=O)OCC (stereo not given)
- T/C [1]: 113 % of control
- T/C [2]: 113 % of control
- T/C [3]: 98 % of control

SMILES: BrCCCCOCBr
- T/C [1]: 95 % of control
- T/C [2]: 95 % of control
- T/C [3]: 86 % of control

SMILES: CCOc1ccn(CC(=O)c2ccc(Cl)s2)c(=O)n1
- T/C [19]: 95 % of control
- T/C [20]: 90 % of control
- T/C [21]: 104 % of control

SMILES: Cc1ccc(OS(=O)(=O)NC(=O)NCc2ccco2)cc1
- T/C [7]: 92 % of control
- T/C [8]: 101 % of control
- T/C [9]: 105 % of control

SMILES: CC([NH-])C[NH-].CC([NH-])C[NH-].CC([NH-])C[NH-].[Co] (stereo not given)
- T/C (dose: 12.5 mg/kg/injection, schedule: Q04DX003 (ip), vehicle: water): 91 % of control
- T/C (dose: 25.0 mg/kg/injection, schedule: Q04DX003 (ip), vehicle: water): 94 % of control
- T/C (dose: 50.0 mg/kg/injection, schedule: Q04DX003 (ip), vehicle: water): 94 % of control
- T/C (dose: 100.0 mg/kg/injection, schedule: Q04DX003 (ip), vehicle: water): 90 % of control

SMILES: CCC1(CCC(=O)OC)CCC[N+]2=C1c1[nH]c3ccc(Br)cc3c1CC2 (stereo not given)
- T/C (dose: 6.25 mg/kg/injection, schedule: Q01DX005 (ip), vehicle: saline with Tween-80): 97 % of control
- T/C (dose: 12.5 mg/kg/injection, schedule: Q01DX005 (ip), vehicle: saline with Tween-80): 100 % of control
- T/C (dose: 25.0 mg/kg/injection, schedule: Q01DX005 (ip), vehicle: saline with Tween-80): 94 % of control
- T/C [22]: 86 % of control

SMILES: CCCOC1CC(C)(O)Cc2cc3c(c(O)c21)C(=O)c1c(O)cc2c(c1C3=O)OC1OC2(C)C(O)C(N(C)C)C1O (stereo not given)
- T/C (dose: 1.56 mg/kg/injection, schedule: Q01DX009 (ip), vehicle: other): 124 % of control
- T/C (dose: 3.13 mg/kg/injection, schedule: Q01DX009 (ip), vehicle: other): 150 % of control

SMILES: CC1OC(OC2C(CO)OC(O[C@H]3CC[C@@]4(C)C(=CC[C@H]5[C@@H]6C[C@@H]7O[C@]8(CC[C@@H](C)CN8)[C@@H](C)[C@@H]7[C@@]6(C)CC[C@@H]54)C3)C(O)C2O)C(O)C(O)C1O (stereo not given in full)
- T/C (dose: 12.5 mg/kg/injection, schedule: Q01DX005 (ip), vehicle: acid diluted with saline): 101 % of control
- T/C (dose: 25.0 mg/kg/injection, schedule: Q01DX005 (ip), vehicle: acid diluted with saline): 105 % of control
- T/C (dose: 50.0 mg/kg/injection, schedule: Q01DX005 (ip), vehicle: acid diluted with saline): 105 % of control and 87 % of control
- T/C (dose: 100.0 mg/kg/injection, schedule: Q01DX005 (ip), vehicle: acid diluted with saline): 105 % of control

SMILES: Cc1ccc(C(=O)Cc2nc3nnc(N)n3nc2CC(=O)c2ccc(C)cc2)cc1
- T/C [22]: 97 % of control
- T/C [23]: 100 % of control
- T/C (dose: 200.0 mg/kg/injection, schedule: Q01DX005 (ip), vehicle: saline): 97 % of control
